Results: patent US20150290171A1, “METHODS FOR THE TREATMENT OF BONE LOSS” (CELGENE CORPORATION, priority 2012, published 2015)
Like-named read-outs stand apart in the source and are kept apart here.

Key:
[1] = test system: Phosphodiesterase 4 enzyme; experiment: Inhibition of PDE4 (enzyme purified from U937 cells, [3H]-cAMP); type: biochemical; settings: PDE4 from U937 human monocytic cells, 1 μM cAMP, 45 min at 30° C.
Description: Phosphodiesterase 4 enzyme was purified from U937 human monocytic cells by gel filtration chromatography, and phosphodiesterase reactions were carried out as previously described. See, e.g., Muller et al., Bioorg. Med. Chem. Lett., 1998, 8(19): 2669-2674. Briefly, reactions were carried out in 96-well deep-well plates in 50 mM Tris HCl pH 7.5, 5 mM MgCl2, 1 μM cyclic adenosine monophosphate (cAMP), plus 10 nM [^3H]-cAMP for 45 min at 30° C. The reactions were terminated by boiling, treated with 1 mg/ml snake venom, and separated using AG-1X8 ion exchange resin (BioRad). Reactions consumed less than 15% of available substrate.

[2] = test system: Human bone marrow mononuclear cells differentiated into OCL; experiment: OCL differentiation (osteoclastogenesis), number of TRAP-5+ cells; type: cell-based; settings: OCL cultures, 7 days
sRANKL protein [3] = experiment: sRANKL protein levels in OCL cultures; type: cell-based, human
BMP-6 gene expression = BMP-6 gene expression in OCL cultures (RT-PCR); type: cell-based, human; settings: FIG. 5
[4] = test system: RAW 264.7 mouse macrophages; experiment: OCL pit formation; type: cell-based; settings: RAW 264.7 cells with RANKL 50 ng/mL, FIG. 6 and 7
sRANKL protein [5] = experiment: OBL culture, sRANKL protein in supernatant (ELISA); type: cell-based, human; settings: 7 days; for reduction of sRANKL protein levels: OBL; for effect on sRANKL protein levels: OBL supernatants
Description: (§1) Normal human OBL (nHOST, Lonza) were grown using OBL basal medium containing 10% fetal bovine serum, ascorbic acid, and gentamicin/amphotericin-B (Lonza). Cells were grown to a density of 5×10^5 cells/mL. Compounds were added and the final concentration of dimethyl sulfoxide (DMSO) was 0.25%. Plates were incubated at 5% CO2, 37° C. for 7 days, changing media every 3 days and adding fresh compound. The supernatant was collected for analysis of RANKL (USCNK Life Science Inc), OPG (R&D Systems), and SOST (R&D Systems) by enzyme-linked immunosorbent assay (ELISA). Cells were stained for ALP.

OPG protein = experiment: OBL culture, OPG protein in supernatant (ELISA); type: cell-based, human; settings: 0.1 μM
Description: as §1

sRANKL/OPG protein ratio = experiment: OBL culture, sRANKL/OPG protein ratio; type: cell-based, human
Description: as §1

sRANKL = experiment: OCY differentiation, sRANKL production (ELISA); type: cell-based, human
Description: (§2) OBL were differentiated into OCY using hydroxyapatite/tricalcium phosphate biphasic calcium phosphate ceramic particles (Graftys BCP), which were placed into polycarbonate filter well inserts, and the cell culture media was changed every 3 days for a total of 28 days. Gene expression was measured by quantitative RT-PCR for the following: RANK, RANKL, SOST, OPG, mothers against decapentaplegic homolog 1 (SMAD1), collagen 9A2 (COL9A2), vascular endothelial growth factor C (VEGFC), and fibroblast growth factor receptor 1 (FGFR1). Protein production was measured by ELISA.

SOST protein = experiment: OCY differentiation, SOST protein levels (ELISA); type: cell-based, human
Description: as §2

RANK gene expression = settings: OCL cultures
Description: Human bone marrow mononuclear cells were differentiated into OCL using 10 nM dexamethasone and 10 nM vitamin D for 7 days. APR (0.1-10 μM) was added with fresh medium on days 0 and 3. […] OCL were lysed and RNA was isolated and converted to cDNA. Reverse transcription polymerase chain reaction (RT-PCR) was performed to measure gene expression of RANK and bone morphogenetic protein 6 (BMP-6).

## CCOc1cc([C@@H](CS(C)(=O)=O)N2C(=O)c3cccc(NC(C)=O)c3C2=O)ccc1OC [(+)-2-[1-(3-ethoxy-4-methoxyphenyl)-2-methanesulfonylethyl]-4-acetylaminoisoindolin-1,3-dione]
[1]
  IC50: 73.5 nM
[2]; 0.1 μM
  reduction of number of TRAP-5+ cells: 21%
[2]; 1 μM
  reduction of number of TRAP-5+ cells: 49%
[2]; 10 μM
  reduction of number of TRAP-5+ cells: 73%
sRANKL protein [3]; 0.1 μM
  reduction of sRANKL protein levels: 25%
sRANKL protein [3]; 1 μM
  reduction of sRANKL protein levels: 21%
sRANKL protein [3]; 10 μM
  reduction of sRANKL protein levels: 38%
BMP-6 gene expression
  effect on BMP-6 gene expression: increase of BMP-6 gene expression
[4]
  effect on OCL pit formation: inhibition of OCL pit formation
sRANKL protein [5]; 1 μM
  reduction of sRANKL protein levels: 25%
sRANKL protein [5]; 10 μM
  reduction of sRANKL protein levels: 25%
OPG protein
  increase of OPG protein levels: 42%
sRANKL/OPG protein ratio; 0.1 μM
  decrease of sRANKL/OPG protein ratio: 39%
sRANKL/OPG protein ratio; 1 μM
  decrease of sRANKL/OPG protein ratio: 32%
sRANKL/OPG protein ratio; 10 μM
  decrease of sRANKL/OPG protein ratio: 40%
sRANKL; 0.1 μM
  reduction of sRANKL production: 18%
sRANKL; 1 μM
  reduction of sRANKL production: 14%
sRANKL; 10 μM
  reduction of sRANKL production: 17%
SOST protein; 0.1 μM
  reduction of SOST protein levels: 16%
SOST protein; 1 μM
  reduction of SOST protein levels: 20%
SOST protein; 10 μM
  reduction of SOST protein levels: 14%
RANK gene expression; 1 μM
  inhibition of RANK gene expression: 30%
RANK gene expression; 10 μM
  inhibition of RANK gene expression: 25%

## O=C(O)c1cc(/N=N/c2ccc(S(=O)(=O)Nc3ccccn3)cc2)ccc1O [sulfasalazine, reference compound]
sRANKL protein [5]; 30 μM
  effect on sRANKL protein levels: no significant effect
sRANKL/OPG protein ratio; 30 μM
  effect on sRANKL/OPG ratio: no effect

## COc1ccc(C2CNC(=O)C2)cc1OC1CCCC1 (stereo not drawn) [Rolipram, rolipram, reference compound]
sRANKL protein [5]; 10 μM
  effect on sRANKL protein levels: no significant effect
sRANKL/OPG protein ratio; 10 μM
  effect on sRANKL/OPG ratio: no effect

## NCCCC(O)(P(=O)(O)O)P(=O)(O)O [Alendronate, alendronate, reference compound]
sRANKL protein [5]; 10 μM
  effect on sRANKL protein levels: no significant effect
sRANKL/OPG protein ratio; 10 μM
  effect on sRANKL/OPG ratio: no effect
RANK gene expression; 10 μM
  inhibition of RANK gene expression: 77%
